In patent US12376589B2, “Chryseobacterium insect inhibitory microbial compositions and methods of making and using” (priority 2021, dated 2025):
Converted amounts (≈) assume the structure as drawn. “Also recorded” adds a separate entry of the source. Where two headings read alike, the source gives them in different places.

Experiments:
[1] = system: Aedes aegypti larvae; assay: whole plant or invertebrate; details: for LC50: Aedes aegypti
From the text: (§1) Measuring potency of 3,3-diindolylmethane and 3-((1H-indol-2-yl)methyl)-1H-indole. 3,3′-Diindolylmethane (also called arundine, CAS number: 1968-05-4) was purchased from MILLIPORESIGMA (cat #74601) and Cayman Chemical (catalog #15927). 3-((1H-indol-2-yl)methyl)-1H-indole (CAS number: 114648-66-7) was purchased from Ambeed (catalog #A735658). Compounds were resuspended in dimethyl sulfoxide (DMSO). For collecting data to construct dose curves for 3,3-diindolylmethane and 3-((1H-indol-2-yl)methyl)-1H-indole, a series of twenty 1:2 dilutions was made to test in bioassays, establish a dose curve, and determine the LC50 value.
(§2) Aedes aegypti bioassays with compounds. Assays were performed using second or third instar larvae, with biological replication. Larvae were washed with sterile water before transfer to 24-well assay plates containing 1 mL of sterile water in each well. Each well contained 5 larvae. Compound dilutions were made in DMSO, topped with sterile NYSM broth and applied to each assay well. The final DMSO concentration was 1% in each assay well. Larval mortality was scored for each well at 24-hour timepoints after application.
Heat treatments. Samples were heated in 1.5-mL microfuge tubes in a standard laboratory heat block at the indicated temperature and time.
The EtOAc fraction was redissolved in MeOH and subjected to chromatographic fractionation (FIG. 11C) using preparative reversed-phase HPLC (Phenomenex Luna phenylhexyl, 21.2 mm×15 cm, 5 μm, 20 mL/min, isocratic elution with 80% H2O/MeCN for 2 min followed by gradient elution from 80% H2O/MeCN to 100% MeCN over 30 min then isocratic elution with 100% MeCN for 5 min) to yield 30 fractions. The preparative HPLC fractions (at concentrations of 200 μg/mL and 20 μg/mL) were tested against Aedes aegypti.

[2] = system: Anticarsia gemmatalis (velvetbean caterpillar); assay: whole plant or invertebrate
Procedure: (§3) Lepidopteran bioassays. Lepidopteran bioassays were performed at Benzon Research, Inc. (Carlisle, PA). 3,3′-Diindolylmethane samples were solubilized in dimethyl sulfoxide (DMSO). Samples were then frozen and shipped to Benzon. Samples were resuspended with 9× volumes of water before application to the assay well. The final DMSO concentration in the assay well was 2%. PLU6 extract samples were prepared as a series of three 1:5 dilutions in dimethyl sulfoxide. Samples were then further diluted with fresh NYSM broth, then shipped to Benzon Research for use in a diet overlay assay. Assays were performed using neonate larvae of 14 different Lepidopteran species (Anticarsia gemmatalis (velvetbean caterpillar), Diatraea grandiosella (southwestern corn borer), Diatraea saccharalis (sugarcane borer), Ostrinia nubilalis (European corn borer), Trichoplusia ni (cabbage looper), Chrysodeixis includens (soybean looper), Spodoptera exigua (beet armyworm), Spodoptera frugiperda (fall armyworm), Spodoptera eridania (southern armyworm), Chloridia virescens (tobacco budworm), Helicoverpa zea (corn earworm), Agrotis ipsilon (black cutworm), Cydia pomonella (codling moth), Plutella xylostella (diamondback moth) with an N=16 or N=32, apart from P. xylostella, for which third instar larvae were used. A diet-surface overlay format was used, in which 500 microliters of diet was placed in each well. One hundred microliters of sample was then pipetted into each well and allowed to dry. A DMSO control was included with each set of samples. An internal Btk (Bacillus thurengiensis kurstaki) standard at a concentration of 1000 ppm was used as a positive control, and water was used as a negative control.

[3] = system: Spodoptera exigua (beet armyworm); assay: whole plant or invertebrate
Procedure: as §3

[4] = system: Drosophila suzukii (spotted wing Drosophila); assay: Drosophila suzukii diet incorporation assay; type: in vivo; details: 100, 500, 1000 μg/mL
Procedure: During the development of embodiments of the technology described herein, experiments were conducted to assess the activity of 3,3′-diindolylmethane against Drosophila suzukii. […] A1X=100 μg/mL; A5X=500 μg/mL; A10X=1000 μg/mL. Each concentration was tested with 10 vials containing 20 D. suzukii L2 larvae. “Dpi” indicates days post infestation (0 dpi is the day of egg-laying).

[5] = system: Heliothis virescens (tobacco budworm); assay: whole plant or invertebrate
Procedure: as §3
(§4) Experiments were conducted in which mortality of lepidopteran larvae was measured after 7 days of diet overlay treatment with 3,3′-diindolylmethane at the concentrations indicated in Table 3. Mean mortalities and standard deviations were calculated from three independent experiments (each N=16). For each experiment, mortalities were corrected using Abbott's formula (Abbott (1987) “Method of computing the effectiveness of an insecticide” J. American Mosquito Control Association 2: 302-03, incorporated herein by reference). For all species except Plutella xylostella, neonates were used. For P. xylostella, third instar larvae were used. The positive control used was 1000 ppm of Bacillus thuringiensis kurstaki.

[6] = system: Spodoptera frugiperda (fall armyworm); assay: whole plant or invertebrate
Procedure: as §3, §4

[7] = system: Plutella xylostella (diamondback moth); assay: Lepidopteran diet overlay bioassay
Procedure: as §3, §4

[8] = system: Ostrinia nubilalis (European corn borer); assay: Lepidopteran diet overlay bioassay
Procedure: as §3, §4

[9] = system: Trichoplusia ni (cabbage looper); details: for Mortality, Trichoplusia ni (cabbage looper): 7 days diet overlay, neonates, mean of three experiments (each N=16), Abbott's formula; for Mortalities (%) after 7 days of treatment (Abbott’s Correction), CL: Trichoplusia ni (cabbage looper)
Procedure: as §3, §4

[10] = system: Culex quinquefasciatus larvae; assay: whole plant or invertebrate
From the text: as §1
as §2, with “Culex quinquefasciatus” for “Aedes aegypti”, “compounds. First or second instar Culex quinquefasciatus larvae were purchased from Benzon Research, Inc. (Carlisle, PA).” for “compounds.”, “with” for “using second or”, “larvae.” for “larvae, with biological replication.”, “Larvae” for “Larval”

[11] = system: Diatraea grandiosella (southwestern corn borer); assay: Lepidopteran diet overlay bioassay; details: in Zea mays, 168 h, read-out: Mortalities (%) after 7 days of treatment (Abbott’s Correction), SWCB
Procedure: as §3

[12] = system: Helicoverpa zea (corn earworm); assay: Lepidopteran diet overlay bioassay; details: 168 h, read-out: Mortalities (%) after 7 days of treatment (Abbott’s Correction), CEW
Procedure: as §3

[13] = system: Spodoptera eridania (southern armyworm); assay: Lepidopteran diet overlay bioassay; details: 168 h, read-out: Mortalities (%) after 7 days of treatment (Abbott’s Correction), SAW
Procedure: as §3

[14] = system: Diatraea saccharalis (sugarcane borer); assay: Lepidopteran diet overlay bioassay; details: 168 h, read-out: Mortalities (%) after 7 days of treatment (Abbott’s Correction), SCB
Procedure: as §3

[15] = system: Agrotis ipsilon (black cutworm); assay: Lepidopteran diet overlay bioassay
Procedure: as §3

[16] = system: Cydia pomonella (codling moth); assay: Lepidopteran diet overlay bioassay; details: 168 h, read-out: Mortalities (%) after 7 days of treatment (Abbott’s Correction), CM
Procedure: as §3

[17] = system: Chrysodeixis includens (soybean looper); assay: Lepidopteran diet overlay bioassay; details: in Glycine max, 168 h, read-out: Mortalities (%) after 7 days of treatment (Abbott’s Correction), SBL
Procedure: as §3

[18] = read-out: LC50 (representative curve fit)
[19] = Anticarsia gemmatalis, 168 h, read-out: Mortalities (%) after 7 days of treatment (Abbott’s Correction), VBC
[20] = Spodoptera exigua, 168 h, read-out: Mortalities (%) after 7 days of treatment (Abbott’s Correction), BAW
[21] = Heliothis virescens, 168 h, read-out: Mortalities (%) after 7 days of treatment (Abbott’s Correction), TBW
[22] = Heliothis virescens, 168 h, read-out: Mortality, Heliothis virescens (tobacco budworm)
[23] = Spodoptera frugiperda, 168 h, read-out: Mortalities (%) after 7 days of treatment (Abbott’s Correction), FAW
[24] = Spodoptera frugiperda, 168 h, read-out: Mortality, Spodoptera frugiperda (fall armyworm)
[25] = Plutella xylostella, 168 h, read-out: Mortalities (%) after 7 days of treatment (Abbott’s Correction), DBM
[26] = Plutella xylostella, 168 h, read-out: Mortality, Plutella xylostella (diamondback moth)
[27] = Ostrinia nubilalis, 168 h, read-out: Mortality, Ostrinia nubilalis (European corn borer)
[28] = Agrotis ipsilon, 168 h, read-out: Mortalities (%) after 7 days of treatment (Abbott’s Correction), BCW

## c1ccc2c(Cc3c[nH]c4ccccc34)c[nH]c2c1 [3,3′-diindolylmethane, 3,3′-Diindolylmethane]
[1]; [18]
  LC50: 10.2 µg/mL (≈ 41.4 µM)
[1]; read-out: mean LC50
  LC50: 7.5 ± 3 µg/mL (≈ 30.4 µM)
[1]; in vivo
  activity against Aedes aegypti larvae: exhibited larvicidal activity
[2]; [19]
  mortality at 156.25 µg/mL: 100%
  mortality at 625 µg/mL: 70%
  mortality at 2500 µg/mL: 96.7%
[2]; diet overlay
  activity against Anticarsia gemmatalis: active; also recorded: dose-dependent activity
[3]; [20]
  mortality at 156.25 µg/mL: 71.9%
  mortality at 625 µg/mL: 93.8%
  mortality at 2500 µg/mL: 71.9%
[3]; diet overlay
  activity against Spodoptera exigua: active; also recorded: dose-dependent activity
[4]
  egg-to-adult survival: not affected
  insecticidal activity against spotted wing Drosophila: did not display insecticidal activity
[4]; L2 larvae, one-way ANOVA
  eclosion rate: not affected
  pupation rate: not affected
[5]; [21]
  mortality at 156.25 µg/mL: 74.2%
  mortality at 625 µg/mL: 74.2%
  mortality at 2500 µg/mL: 87.1%
[5]; [22]
  mortality at 9.77 µg/mL: 3.16%
  mortality at 39.06 µg/mL: 40.9%
  mortality at 156.25 µg/mL: 85.2%
  mortality at 625 µg/mL: 93.8%
  mortality at 2500 µg/mL: 83.3%
[5]; diet overlay
  activity against tobacco budworm: active; also recorded: dose-dependent activity
[6]; [23]
  mortality at 156.25 µg/mL: 40%
  mortality at 625 µg/mL: 63.3%
  mortality at 2500 µg/mL: 96.7%
[6]; [24]
  mortality at 9.77 µg/mL: 4.1%
  mortality at 39.06 µg/mL: 2.15%
  mortality at 156.25 µg/mL: 79%
  mortality at 625 µg/mL: 85.1%
  mortality at 2500 µg/mL: 95.7%
[6]; diet overlay
  activity against Spodoptera frugiperda: active; also recorded: dose-dependent activity
[7]; [25]
  mortality at 156.25 µg/mL: 19.4%
  mortality at 625 µg/mL: 6.5%
  mortality at 2500 µg/mL: 19.4%
[7]; [26]
  mortality at 9.77 µg/mL: 1.01%
  mortality at 39.06 µg/mL: 1.07%
  mortality at 156.25 µg/mL: 7.39%
  mortality at 625 µg/mL: 15.7%
  mortality at 2500 µg/mL: 43.4%
[7]; diet overlay
  activity against P. xylostella: low or not observed
[8]; [27]
  mortality at 9.77 µg/mL: 2.08%
  mortality at 39.06 µg/mL: 2.08%
  mortality at 156.25 µg/mL: 4.17%
  mortality at 625 µg/mL: 6.25%
  mortality at 2500 µg/mL: 4.17%
[8]; diet overlay
  activity against O. nubilalis: low or not observed
[9]; 39.06 μg/mL
  Mortality, Trichoplusia ni (cabbage looper): 3.00%
[9]; 156.25 μg/mL
  Mortality, Trichoplusia ni (cabbage looper): 22.95%
[9]; 156.25 μg/mL, diet overlay
  Mortalities (%) after 7 days of treatment (Abbott’s Correction), CL: 41.4%
[9]; 625 μg/mL
  Mortality, Trichoplusia ni (cabbage looper): 44.60%
[9]; 625 μg/mL, diet overlay
  Mortalities (%) after 7 days of treatment (Abbott’s Correction), CL: 72.4%
[9]; 2500 μg/mL
  Mortality, Trichoplusia ni (cabbage looper): 93.25%
[9]; 2500 μg/mL, diet overlay
  Mortalities (%) after 7 days of treatment (Abbott’s Correction), CL: 93.1%
[9]; diet overlay
  activity against Trichoplusia ni: active; also recorded: dose-dependent activity
[10]; [18]
  LC50: 7.5 µg/mL (≈ 30.4 µM)
[11]
  mortality at 156.25 µg/mL: 46.7%
  mortality at 625 µg/mL: 90%
  mortality at 2500 µg/mL: 83.3%
[12]
  mortality at 156.25 µg/mL: 40.6%
  mortality at 625 µg/mL: 50%
  mortality at 2500 µg/mL: 90.6%
[13]
  mortality at 156.25 µg/mL: 22.6%
  mortality at 625 µg/mL: 100%
  mortality at 2500 µg/mL: 100%
[14]
  mortality at 156.25 µg/mL: 100%
  mortality at 625 µg/mL: 100%
  mortality at 2500 µg/mL: 100%
[15]; [28]
  mortality at 156.25 µg/mL: 0%
  mortality at 625 µg/mL: 26.7%
  mortality at 2500 µg/mL: 20%
[15]; diet overlay
  activity against A. ipsilon: low or not observed
[16]
  mortality at 156.25 µg/mL: 21.4%
  mortality at 625 µg/mL: 50%
  mortality at 2500 µg/mL: 39.3%
[17]
  mortality at 156.25 µg/mL: 26.7%
  mortality at 625 µg/mL: 50%
  mortality at 2500 µg/mL: 80%

## c1ccc2[nH]c(Cc3c[nH]c4ccccc34)cc2c1 [3-((1H-indol-2-yl)methyl)-1H-indole]
[1]; [18]
  LC50: 5.8 µg/mL (≈ 23.5 µM)
[1]; read-out: mean LC50
  LC50: 6.3 ± 2.1 µg/mL (≈ 25.6 µM)
[10]; [18]
  LC50: 1.5 µg/mL (≈ 6.09 µM)
[10]; read-out: mean LC50
  LC50: 0.95 ± 0.75 µg/mL (≈ 3.86 µM)
